A word on the IC50: it is the midpoint of a concentration-inhibition curve.

This experiment concerns NIH3T3. Put plainly: Cytotoxicity against mouse NIH/3T3 cells assessed as reduction in cell viability incubated for 24 hrs by MTT assay. In kind it is cell-based. The conditions noted are these: NIH3T3, 24 h.

Regarding `NS(=O)(=O)c1ccc(NC(=O)CSC(=S)N2CCN(c3ccccn3)CC2)cc1`, the IC50 was 18.5 µM. Under `NS(=O)(=O)c1ccc(NC(=O)CSC(=S)N2CCN(c3ncccn3)CC2)cc1` stands 16.5 µM. Under `Cc1ccc(CN2CCN(C(=S)SCC(=O)Nc3ccc(S(N)(=O)=O)cc3)CC2)cc1` stands 58.1 µM; under `CN1CCN(C(=S)SCC(=O)Nc2ccc(S(N)(=O)=O)cc2)CC1`, 14.5 µM. Next, `CN(C)CCN1CCN(C(=S)SCC(=O)Nc2ccc(S(N)(=O)=O)cc2)CC1`: over 1000 µM; `CN(C)CCCN1CCN(C(=S)SCC(=O)Nc2ccc(S(N)(=O)=O)cc2)CC1`: over 1000 µM.
